In paper PMC6817880, “Biochemical and Structural Insights Concerning Triclosan Resistance in a Novel YX7K Type Enoyl-Acyl Carrier Protein Reductase from Soil Metagenome” (Scientific Reports, 2019):

Tested on: T1, FabI2 ENR (metagenomic YX7K type enoyl-acyl carrier protein reductase)
T1 construct: fabI2 gene in pET-30b(+) (BamHI/SalI), vector pAF1-5; His-tag fusion protein from E. coli BL21(DE3), tag cleavage not mentioned
Assay: spectrophotometric NADH oxidation at […] nm, Michaelis-Menten fit
Format: biochemical, uncultured bacterium
Settings: 100 nM enzyme, 100 mM sodium phosphate pH 7.0, 25 °C

Q: With `NC(=O)C1=CN([C@@H]2O[C@H](COP(=O)(O)OP(=O)(O)OC[C@H]3O[C@@H](n4cnc5c(N)ncnc54)[C@H](O)[C@@H]3O)[C@@H](O)[C@H]2O)C=CC1` [NADH] as the compound, how does the Km (60 µM crotonyl-CoA) read?
A: 18.2 µM

Q: `C/C=C/C(=O)SCCNC(=O)CCNC(=O)[C@H](O)C(C)(C)COP(=O)(O)OP(=O)(O)OC[C@H]1O[C@@H](n2cnc3c(N)ncnc32)[C@H](O)[C@@H]1OP(=O)(O)O` [crotonyl-CoA] was tested. Which Km (200 µM NADH) did it give?
A: 13.8 µM
